Data as given in US20010029264A1, “Novel methods and compositions for delivery of taxanes” (priority 1998, published 2001).
Like-named read-outs stand apart in the source and are kept apart here.

How the values were obtained:
[1] = Oral feasibility PK in dogs (paclitaxel capsules, plasma HPLC); type: in vivo; settings: for Cmax / Tmax: dog, plasma; for Tmax: read-out: tmax (time of maximum concentration observed)
Protocol: The formulation was as follows: […]
and was hand filled into single 0 hard gelatin capsules to a dose of approximately 34 mg/capsule.
Capsules were inserted into the esophagus and followed with a brief squirt of water and the animals held until swallowing was observed.

[2] = Solubilization of paclitaxel in the carrier and appearance of the undiluted formulation; type: physicochemical
Protocol: 4.040 g of Vitamin E-TPGS (Eastman Chemical Co., Kingsport, Tenn.) was chipped in and weighed into a 20 ml scintillation vial. 0.514 g of dimethylisosorbide (“DMI”; ARLASOLVE® DMI, ICI Surfactants; Wilmington, Del.) was added to the vial followed by heating to melt the Vitamin E-TPGS/DMI mixture. […] The solution began to clarify and dissolution progressed.
Each formulation was prepared in a 20 ml scintillation vial. The vial was initially tared. CREMOPHOR® EL/citric acid blend (10 g CREMOPHOR® EL, 0.020 g citric acid) was weighed into each of eight (8) tared vials. The weight was recorded. Each vial was subsequently tared and the appropriate weight of dimethylisosorbide (DMI) was added. An additional five (5) vials were also prepared without containing the CREMOPHOR® EL/citric acid blend. […] All vials were individually tared and the appropriate weight of Vitamin E-TPGS was added. At this point, all vials were placed in a 40° C. incubator to liquefy the Vitamin E-TPGS within each sample. After the solutions had liquefied, two samples were removed at a time and placed on a stir/hotplate. One-half inch egg shaped stir bars were added to each scintillation vial.
Large clumps were broken apart easily with a stainless steel spatula. […] This same procedure was repeated for each of the samples.
1.016 g of ethyl alcohol was transferred to a 20 ml scintillation vial containing a stir bar. […]

[3] = test system: IP implanted D16 melanoma; settings: cited from earlier work
[4] = test system: human X-1 mammary tumor xenograft; settings: cited from earlier work
[5] = male beagle FJF-8, oral, 3 capsules Vitamin E TPGS/DMI formulation, 7.66 mg/kg
[6] = male beagle IOF-8, oral, 3 capsules Vitamin E TPGS/DMI formulation, 6.88 mg/kg

Cmax [1, 5]: 108 ng/mL | Tmax [1, 5]: 1 h | Cmax [1, 6]: 92 ng/mL | Tmax [1, 6]: 0.5 h | tlast (time of last nonzero concentration observed) [1, 5]: 8 h | tlast (time of last nonzero concentration observed) [1, 6]: 6 h | tlast (time of last nonzero concentration observed) ([1]; male beagle OEF-8, oral, 1 capsule Vitamin E TPGS/DMI formulation, 3.27 mg/kg): 8 h | tlast (time of last nonzero concentration observed) ([1]; male beagle OLF-8, oral, 3 capsules Vitamin E TPGS/DMI formulation, 11.14 mg/kg): 8 h | tlast (time of last nonzero concentration observed) ([1]; male beagle PXF-8, oral, 1 capsule Vitamin E TPGS/DMI formulation, 3.23 mg/kg): 12 h | Cmax ([1]; male, beagle, po, 3.23 mg/kg): 17 ng/mL | Tmax ([1]; male, beagle, po, 3.23 mg/kg): 1 h | Cmax ([1]; male, beagle, po, 3.27 mg/kg): 97 ng/mL | Tmax ([1]; male, beagle, po, 3.27 mg/kg): 1 h | Cmax ([1]; male, beagle, po, 11.14 mg/kg): 63 ng/mL | Tmax ([1]; male, beagle, po, 11.14 mg/kg): 1 h | dissolution of paclitaxel in Methoxy PEG 550 alone ([2]; 0.050 g in 0.450 g (Table 3)): eventually dissolved | dissolution of paclitaxel in Methoxy PEG 350 alone ([2]; 0.050 g in 0.450 g and 0.100 g in 0.900 g (Table 3)): quickly dissolved
Structure (SMILES): CC(=O)O[C@H]1C(=O)[C@@]2(C)[C@H]([C@H](OC(=O)c3ccccc3)[C@]3(O)C[C@H](OC(=O)[C@H](O)[C@@H](NC(=O)c4ccccc4)c4ccccc4)C(C)=C1C3(C)C)[C@]1(OC(C)=O)CO[C@@H]1C[C@@H]2O [paclitaxel]
detectable plasma levels of intact drug following dosing ([1]; six male beagles, oral capsules, 3 to 11 mg/kg, plasma to 48 hours postdose): Five of the six animals had detectable levels of intact drug | cytotoxic activity [3]: good cytotoxic activity | cytotoxic activity [4]: good cytotoxic activity
